How the values were obtained:
[1] = tested on: ALOMY; assay: Pre-emergence herbicidal effect against ALOMY; format: in vivo, Alopecurus myosuroides; conditions: 320 g/ha, scored visually after 3 weeks vs untreated controls, 100% = plants have died
From the text: (§1) Seeds of monocotyledonous and dicotyledonous weed plants and crop plants are laid out in sandy loam soil in wood-fiber pots and covered with soil. The compounds of the invention, formulated in the form of wettable powders (WP) or as emulsion concentrates (EC), are then applied to the surface of the covering soil as aqueous suspension or emulsion at a water application rate equating to 600 to 800 L/ha with addition of 0.2% wetting agent.
(§2) After the treatment, the pots are placed in a greenhouse and kept under good growth conditions for the trial plants. The damage to the test plants is scored visually after a test period of 3 weeks by comparison with untreated controls (herbicidal activity in percent (%): 100% activity=the plants have died, 0% activity=like control plants).

[2] = tested on: SETVI; assay: Pre-emergence herbicidal effect against SETVI; format: in vivo, Setaria viridis; conditions: 320 g/ha, scored visually after 3 weeks vs untreated controls, 100% = plants have died
From the text: as §1, §2

[3] = tested on: ALOMY; assay: Post-emergence herbicidal effect against ALOMY; format: in vivo, Alopecurus myosuroides; conditions: one-leaf stage, 80 g/ha, assessed visually after about 3 weeks vs untreated controls, 100% = plants have died
Protocol: (§3) Seeds of monocotyledonous and dicotyledonous weed and crop plants are laid out in sandy loam soil in wood-fiber pots, covered with soil and cultivated in a greenhouse under good growth conditions. 2 to 3 weeks after sowing, the test plants are treated at the one-leaf stage. The compounds of the invention, formulated in the form of wettable powders (WP) or as emulsion concentrates (EC), are then sprayed onto the green parts of the plants as aqueous suspension or emulsion at a water application rate equating to 600 to 800 l/ha with addition of 0.2% wetting agent. After the test plants have been left to stand in the greenhouse under optimal growth conditions for about 3 weeks, the action of the preparations is assessed visually in comparison to untreated controls (herbicidal action in percent (%): 100% activity=the plants have died, 0% activity=like control plants).

[4] = tested on: AVEFA; assay: Post-emergence herbicidal effect against AVEFA; format: in vivo, Avena fatua; conditions: one-leaf stage, 80 g/ha, assessed visually after about 3 weeks vs untreated controls, 100% = plants have died
Protocol: as §3

[5] = tested on: ECHCG; assay: Post-emergence herbicidal effect against ECHCG; format: in vivo, Echinochloa crus-galli; conditions: one-leaf stage, 80 g/ha, assessed visually after about 3 weeks vs untreated controls, 100% = plants have died
Protocol: as §3

[6] = tested on: LOLRI; assay: Post-emergence herbicidal effect against LOLRI; format: in vivo, Lolium rigidum; conditions: one-leaf stage, 80 g/ha, assessed visually after about 3 weeks vs untreated controls, 100% = plants have died
Protocol: as §3

[7] = tested on: SETVI; assay: Post-emergence herbicidal effect against SETVI; format: in vivo, Setaria viridis; conditions: one-leaf stage, 80 g/ha, assessed visually after about 3 weeks vs untreated controls, 100% = plants have died
Protocol: as §3

[8] = tested on: AVEFA; assay: Pre-emergence herbicidal effect against AVEFA; format: in vivo, Avena fatua; conditions: 320 g/ha, scored visually after 3 weeks vs untreated controls, 100% = plants have died
From the text: as §1, §2

[9] = tested on: DIGSA; assay: Pre-emergence herbicidal effect against DIGSA; format: in vivo, Digitaria sanguinalis; conditions: 320 g/ha, scored visually after 3 weeks vs untreated controls, 100% = plants have died
From the text: as §1, §2

[10] = tested on: LOLRI; assay: Pre-emergence herbicidal effect against LOLRI; format: in vivo, Lolium rigidum; conditions: 320 g/ha, scored visually after 3 weeks vs untreated controls, 100% = plants have died
From the text: as §1, §2

[11] = tested on: ECHCG; assay: Pre-emergence herbicidal effect against ECHCG; format: in vivo, Echinochloa crus-galli; conditions: 320 g/ha, scored visually after 3 weeks vs untreated controls, 100% = plants have died
From the text: as §1, §2

[12] = tested on: DIGSA; assay: Post-emergence herbicidal effect against DIGSA; format: in vivo, Digitaria sanguinalis; conditions: one-leaf stage, 80 g/ha, assessed visually after about 3 weeks vs untreated controls, 100% = plants have died
Protocol: as §3

SMILES | Pre-emergence action [%] against ALOMY [1] [%] | Pre-emergence action [%] against SETVI [2] [%] | Post-emergence action [%] against ALOMY [3] [%] | Post-emergence action [%] against AVEFA [4] [%] | Post-emergence action [%] against ECHCG [5] [%] | Post-emergence action [%] against LOLRI [6] [%] | Post-emergence action [%] against SETVI [7] [%] | Pre-emergence action [%] against AVEFA [8] [%] | Pre-emergence action [%] against DIGSA [9] [%] | Pre-emergence action [%] against LOLRI [10] [%] | Pre-emergence action [%] against ECHCG [11] [%] | Post-emergence action [%] against DIGSA [12] [%]
CC#Cc1cc(Br)c(C2=C(O)C3(CCCC(OCCOC)C3)NC2=O)c(CC)c1 (centres unmarked) [Example D8] | 80 | 100 | 100 | 80 | 90 | 80 | 90 |  |  |  |  | 
CC#Cc1cc(C)c(C2=C(OC(=O)C(C)C)C3(CCC(CC)CC3)NC2=O)c(Cl)c1 (centres unmarked) [Example P1, 3-[2-Chloro-6-methyl-4-(prop-1-yn-1-yl)phenyl]-8-ethyl-2-oxo-1-azaspiro[4.5]dec-3-en-4-yl 2-methylpropanoate] |  |  |  |  |  |  | 100 |  |  |  |  | 
CC#Cc1cc(Cl)c(C2=C(OC(=O)OCC)C3(CCC(OCC)CC3)NC2=O)c(CC)c1 (centres unmarked) [Example P22] | 100 | 100 |  |  | 90 |  | 100 | 90 | 100 | 100 | 100 | 90
CC#Cc1cc(Cl)c(C2=C(OC(=O)OCC)C3(CCC(OCCOC)CC3)NC2=O)c(CC)c1 (centres unmarked) [Example P23] | 100 | 100 | 80 |  |  |  | 80 | 80 | 100 | 100 | 100 | 
CC#Cc1cc(Cl)c(C2=C(OC(=O)C(C)C)C3(CCC(OC)CC3)NC2=O)c(CC)c1 (centres unmarked) [Example P25] | 100 | 100 | 90 |  | 100 |  | 100 | 100 | 100 | 90 | 100 | 100
CC#Cc1cc(Cl)c(C2=C(OC(=O)OC)C3(CCC(OCC)CC3)NC2=O)c(CC)c1 (centres unmarked) [Example P26] | 100 | 100 | 90 |  | 100 |  | 90 | 90 | 100 | 100 | 90 | 80
CC#Cc1cc(Cl)c(C2=C(OC(=O)OC)C3(CCC(OCCOC)CC3)NC2=O)c(CC)c1 (centres unmarked) [Example P28] | 100 | 100 |  |  | 80 |  | 80 | 80 | 100 |  | 100 | 
CC#Cc1cc(Cl)c(C2=C(OC(=O)OC(C)(C)C)C3(CCC(OCCOC)CC3)NC2=O)c(CC)c1 (centres unmarked) [Example P29] | 80 | 80 |  |  | 90 |  | 90 | 80 | 90 |  | 90 | 
CC#Cc1cc(Cl)c(C2=C(OC(=O)OC(C)(C)C)C3(CCC(OC)CC3)NC2=O)c(CC)c1 (centres unmarked) [Example P30] | 100 | 100 | 90 | 80 |  |  | 100 | 80 | 100 | 100 | 90 | 
CC#Cc1cc(Cl)c(C2=C(OC(=O)C(C)C)C3(CCC(OCC)CC3)NC2=O)c(CC)c1 (centres unmarked) [Example P31] | 100 | 100 | 100 |  |  |  | 100 | 90 | 100 | 100 | 100 | 
CC#Cc1cc(Cl)c(C2=C(OC(=O)C(C)C)C3(CCC(OCCOC)CC3)NC2=O)c(CC)c1 (centres unmarked) [Example P32] | 100 | 100 |  |  |  |  | 90 |  | 90 | 90 | 100 | 
CC#Cc1cc(Cl)c(C2=C(OC(=O)OCC)C3(CCC(OC)CC3)NC2=O)c(C2CC2)c1 (centres unmarked) [Example P33] | 100 | 100 | 100 | 100 | 100 | 100 | 100 | 100 | 100 | 100 | 100 | 
CC#Cc1cc(Br)c(C2=C(OC(=O)OCC)C3(CCC(OC)CC3)NC2=O)c(CC)c1 (centres unmarked) [Example P34] |  | 100 | 100 |  | 90 |  | 100 |  |  |  |  | 
CC#Cc1cc(Br)c(C2=C(OC(=O)OCC)C3(CCC(OC)CC3)NC2=O)c(C2CC2)c1 (centres unmarked) [Example P35] | 100 | 100 | 100 |  | 100 | 100 | 100 | 100 | 100 | 100 | 100 | 100
CC#Cc1cc(Br)c(C2=C(OC(=O)OCC)C3(CCCC(OCCOC)C3)NC2=O)c(CC)c1 (centres unmarked) [Example Q1] | 90 | 100 | 80 |  |  |  | 90 |  |  | 90 |  | 
CC#Cc1cc(Br)c(C2=C(OC(=O)OCC)C3(CCCC(OCCOC)C3)NC2=O)c(C2CC2)c1 (centres unmarked) [Example Q2] | 100 | 100 | 100 |  | 100 | 100 | 100 | 100 | 100 | 100 | 100 | 100
CC#Cc1cc(C)c(C2=C(OC(=O)OCC)C3(CCCC(OCCC)C3)NC2=O)c(Br)c1 (centres unmarked) [Example Q3] | 100 | 100 | 100 |  | 100 | 100 | 100 | 100 | 100 | 100 | 100 | 100
CC#Cc1cc(C)c(C2=C(OC(=O)OC(C)(C)C)C3(CCCC(OCC(C)C)C3)NC2=O)c(Cl)c1 (centres unmarked) [Example Q7] | 80 | 100 |  |  |  |  |  |  |  |  |  | 
